pEC50: −log10 of the molar value. “Also recorded” adds a separate entry of the source. Where two headings read alike, the source gives them in different places.
How the values were obtained:
Type in all cases: cell-based
[1] = test system: RAW264.7 murine macrophages; assay: Cytokine/chemokine induction in wild-type RAW264.7 murine macrophages (multiplexed immunoassay); conditions: wild-type RAW264.7 murine macrophage cell line
Experimental: (§1) Cytokine induction by 7e and 7f was examined in murine-derived cell lines. […] The absence of activity was not due to extensive plasma protein binding by re-examining under near-serum-free conditions.
(§2) Example 5: High-throughput screens in porcine blood: Curated compound collections were obtained from the Institute for Therapeutics Discovery & Development at the University of Minnesota. Compound transfers from source (80 nL of 10 mM stocks) to assay plates were performed using an Echo 550 acoustic liquid handler (Labcyte, Sunnyvale, Calif.). For most libraries, a target final concentration of 10 μM of compound (in a final volume of 80 μL for the assay described below) was achieved. Compound plates were hermetically sealed and stored at −80° C. until used. Fresh, heparin-anticoagulated porcine blood from healthy animals were obtained under USDA supervision from Midwest Research Swine, LLC (Glencoe, Minn.). 80 μL of hematocrit-enriched porcine blood (low-speed centrifugation, followed by resuspension in DMEM supplemented with 10% fetal bovine serum) was added to compound plates and incubated for 15 h. […] NF-κB translocation was assayed spectrophotometrically using an alkaline phosphatase-specific chromogen (present in HEK-detection medium as supplied by InvivoGen) at 620 nm using a SpectraMax M4 multimode microplate reader (Molecular Devices, Sunnyvale, Calif.). […] Example 7: Human NOD1/2-specific reporter gene assays (NF-κB induction), and TLR-2/-3/-4/-5/-7/-8/-9/STING/ISG counter-screens: The induction of NF-κB was quantified using human TLR-2/-3/-4/-5/-7/-8/-9/NOD-1/NOD-2/STING/ISG-specific, rapid-throughput, liquid handler-assisted reporter gene assays as previously described by us (Wu, W. et al. J. Med. Chem. 2010, 53, 3198-3213; Shukla, N. M. et al. J. Med. Chem. 2010, 53, 4450-4465; Agnihotri, G. et al. J. Med. Chem. 2011, 54, 1490-1510 and Ukani, R. et al. Bioorg. Med. Chem. Lett. 2012, 22, 293-295). […]

[2] = test system: microglial cell line derived from MAL/MyD88 double knockout Mice (NR-9904); assay: Cytokine/chemokine induction in MAL/MyD88 double-knockout cell line; conditions: MAL/MyD88 double-knockout murine cell line
Experimental: as §1, §2

[3] = test system: macrophage cell line derived from TRIF/TRAM knockout mice (NR-9568); assay: Cytokine/chemokine induction in TRIF/TRAM double-knockout cell line; conditions: TRIF/TRAM double-knockout murine cell line
Experimental: as §1, §2

[4] = test system: human peripheral blood mononuclear cells (PBMCs); assay: Multiplexed immunoassays for human cytokines in PBMCs
Experimental: (§3) Example 5: High-throughput screens in porcine blood: Curated compound collections were obtained from the Institute for Therapeutics Discovery & Development at the University of Minnesota. Compound transfers from source (80 nL of 10 mM stocks) to assay plates were performed using an Echo 550 acoustic liquid handler (Labcyte, Sunnyvale, Calif.). For most libraries, a target final concentration of 10 μM of compound (in a final volume of 80 μL for the assay described below) was achieved. Compound plates were hermetically sealed and stored at −80° C. until used. Fresh, heparin-anticoagulated porcine blood from healthy animals were obtained under USDA supervision from Midwest Research Swine, LLC (Glencoe, Minn.). 80 μL of hematocrit-enriched porcine blood (low-speed centrifugation, followed by resuspension in DMEM supplemented with 10% fetal bovine serum) was added to compound plates and incubated for 15 h. The following day, the plates were briefly centrifuged (100 g, 10 min), and supernatants were transferred using an automated ViaFlow 384 transfer device (Integra Biosciences Corp., Hudson, N.H.) to assay plates containing of 10^6 cells/mL of each of the following NF-κB/secreted alkaline phosphatase reporter cells suspended in HEK-Blue Detection Media: human IFN-α/β, human IFN-γ, human TNF-α/IL-1β (InvivoGen, San Diego, Calif.). NF-κB translocation was assayed spectrophotometrically using an alkaline phosphatase-specific chromogen (present in HEK-detection medium as supplied by InvivoGen) at 620 nm using a SpectraMax M4 multimode microplate reader (Molecular Devices, Sunnyvale, Calif.). Z′ factors were computed for each TLR/NOD-specific signals. Hits were defined as signals >4σ (in-plate standard deviations for test compounds above negative control means), were deconvoluted in full dose-response assays in human TLR-2/-3/-4/-5/-7/-8/-9 and NOD-1/NOD-2-specific reporter cells in liquid handler-assisted assay formats as described previously. Example 6: Murine knockout cell-lines: The following reagents were obtained through BEI Resources, NIAID, NIH: the microglial cell line derived from MAL/MyD88 double knockout Mice (NR-9904), and the macrophage cell line derived from TRIF/TRAM knockout mice (NR-9568). Example 7: Human NOD1/2-specific reporter gene assays (NF-κB induction), and TLR-2/-3/-4/-5/-7/-8/-9/STING/ISG counter-screens: The induction of NF-κB was quantified using human TLR-2/-3/-4/-5/-7/-8/-9/NOD-1/NOD-2/STING/ISG-specific, rapid-throughput, liquid handler-assisted reporter gene assays as previously described by us (Wu, W. et al. J. Med. Chem. 2010, 53, 3198-3213; Shukla, N. M. et al. J. Med. Chem. 2010, 53, 4450-4465; Agnihotri, G. et al. J. Med. Chem. 2011, 54, 1490-1510 and Ukani, R. et al. Bioorg. Med. Chem. Lett. 2012, 22, 293-295). […]

human whole blood = assay: Cytokine/chemokine induction in human whole blood
human NOD2 = target: T1, human NOD2 (Homo sapiens, UniProt Q9HC29); assay: human NOD2 specific reporter gene assay (NF-κB induction); conditions: for EC50: human NOD2 specific reporter gene assay, arithmetic mean of quadruplicate samples, NA* indicates inactive under the tested conditions, read-out: hNOD2 Agonistic Activity (μM), EC50
T1 construct: host or cells: HEK293
T1 sequence (Q9HC29 whole entry): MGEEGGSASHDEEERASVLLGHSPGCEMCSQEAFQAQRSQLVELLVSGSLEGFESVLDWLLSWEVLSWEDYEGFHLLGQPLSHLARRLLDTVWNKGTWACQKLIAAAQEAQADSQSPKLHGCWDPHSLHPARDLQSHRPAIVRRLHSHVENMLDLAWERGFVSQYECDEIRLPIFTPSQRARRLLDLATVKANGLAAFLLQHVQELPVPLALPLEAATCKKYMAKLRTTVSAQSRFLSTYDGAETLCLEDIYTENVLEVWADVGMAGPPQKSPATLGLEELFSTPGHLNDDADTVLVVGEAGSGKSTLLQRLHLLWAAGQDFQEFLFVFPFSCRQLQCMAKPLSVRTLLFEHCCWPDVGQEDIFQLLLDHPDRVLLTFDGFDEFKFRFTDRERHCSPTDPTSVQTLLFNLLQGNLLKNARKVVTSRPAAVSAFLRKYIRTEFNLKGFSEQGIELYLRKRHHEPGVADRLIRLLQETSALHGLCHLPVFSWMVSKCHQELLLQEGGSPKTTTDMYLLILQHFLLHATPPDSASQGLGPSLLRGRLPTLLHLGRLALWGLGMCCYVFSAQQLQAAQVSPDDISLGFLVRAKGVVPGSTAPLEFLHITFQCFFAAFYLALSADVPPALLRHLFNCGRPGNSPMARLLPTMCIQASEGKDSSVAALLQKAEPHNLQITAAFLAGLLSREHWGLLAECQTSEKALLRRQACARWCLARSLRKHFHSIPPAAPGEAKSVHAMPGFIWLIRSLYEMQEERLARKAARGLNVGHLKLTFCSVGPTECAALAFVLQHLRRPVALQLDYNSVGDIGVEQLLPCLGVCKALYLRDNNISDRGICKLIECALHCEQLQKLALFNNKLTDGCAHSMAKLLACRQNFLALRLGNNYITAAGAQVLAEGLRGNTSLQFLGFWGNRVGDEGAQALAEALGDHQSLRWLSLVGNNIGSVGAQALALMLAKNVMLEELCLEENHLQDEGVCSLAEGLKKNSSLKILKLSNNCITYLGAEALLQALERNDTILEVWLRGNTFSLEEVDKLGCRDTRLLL
Experimental: as §3, with “293-295). HEK293 cells stably co-transfected with the appropriate hTLR and secreted alkaline phosphatase (sAP) were maintained in HEK-Blue™ Selection medium. Stable expression of secreted alkaline phosphatase (sAP) under control of NF-κB/AP-1/IRF promoters is inducible by appropriate innate immune stimuli, and extracellular sAP in the supernatant is proportional to NF-κB/IRF induction. Reporter cells were incubated at a density of ˜10^5 cells/ml in a volume of 80 μl/well, in 384-well, flat-bottomed, cell culture-treated microtiter plates in the presence of graded concentrations of stimuli. sAP was assayed spectrophotometrically using an alkaline phosphatase-specific chromogen (present in HEK-detection medium as supplied by InvivoGen) at 620 nm. Example 8: Multiplexed immunoassays for human cytokines: Fresh human peripheral blood mononuclear cells (hPBMC) were isolated from human blood obtained by venipuncture in Cell Preparation Tubes (CPT, Beckton-Dickinson) with informed consent and as per guidelines approved by the University of Minnesota Human Subjects Experimentation Committee. Aliquots of PBMCs or THP-1 cells (10^5 cells in 100 μL/well) were stimulated for 16 h with graded concentrations of test compounds.” for “293-295).”

`CCCCOC(=O)[C@@H](CCC(N)=O)NC(=O)[C@H](C)NC(=O)[C@@H](C)O[C@H]1[C@H](O)[C@@H](CO)OC(O)[C@@H]1NC(C)=O` (stereo partly drawn) [murabutide, N-Acetyl-muramyl-LAlanyl-D-Glutamin-n-butyl-ester, reference compound] was tested, and the “induction of chemokines and proinflammatory cytokines” value [1] was “potently immunostimulatory; also recorded: induction of chemokines and cytokines”, the “cytokine and chemokine induction” value [2] was “abrogation of responsiveness” and the “cytokine and chemokine induction” value [3] was “abrogation of responsiveness”. The “induction of chemokines and cytokines” value [4] was “induced significant levels of cytokines and chemokines” and the “induction of cytokines and chemokines” value (human whole blood) was “induced significant levels of cytokines and chemokines”.

`CCOC(=O)c1cc(-n2cnc3ccccc32)cs1` [Compound 1, Ethyl 4-(1H-benzo[d]imidazol-1-yl)thiophene-2-carboxylate] was tested, and the “induction of chemokines and cytokines” value [4] was “None of the small molecules (including 1, as well as the optimized, equipotent analogues 7e and 7f) showed any activity” and the “induction of cytokines and chemokines” value (human whole blood) was “None of the small molecules (including 1, as well as the optimized, equipotent analogues 7e and 7f) showed any activity”.

In the case of `O=C(NNc1ccccc1)c1cc(-n2cnc3ccccc32)cs1` [Compound 2h, 4-(1H-Benzo[d]imidazol-1-yl)-N′-phenylthiophene-2-carbohydrazide], the “hNOD2-agonistic activity (in words)” value (human NOD2; human NOD2 reporter gene assay) was “inactive”.

`NC(=O)c1cc(-n2cnc3ccccc32)cs1` [Compound 2a, 4-(1H-Benzo[d]imidazol-1-yl)thiophene-2-carboxamide] was tested, and the “hNOD2-agonistic activity (in words)” value (human NOD2; human NOD2 reporter gene assay) was “Weak hNOD2-agonistic activity” and the pEC50 (human NOD2; human NOD2 reporter gene assay, read-out: EC50 values, human NOD2 agonistic potency) was 5.14.

`CCCCCCCCc1nc2ccccc2n1-c1csc(C(N)=O)c1` [Compound 7g, 4-(2-Octyl-1H-benzo[d]imidazol-1-yl)thiophene-2-carboxamide] gave an EC50 (human NOD2) of 2.2 µM.

In the case of `NNC(=O)c1cc(-n2cnc3ccccc32)cs1` [Compound 2b, 4-(1H-Benzo[d]imidazol-1-yl)thiophene-2-carbohydrazide], the “hNOD2-agonistic activity (in words)” value (human NOD2; human NOD2 reporter gene assay) was “inactive”.

In the case of `CCCCCc1nc2ccccc2n1-c1csc(C(=O)NO)c1` [Compound 11b, N-Hydroxy-4-(2-pentyl-1H-benzo[d]imidazol-1-yl)thiophene-2-carboxamide], the “hNOD2-agonistic activity (in words)” value (human NOD2; human NOD2 reporter gene assay) was “weak activity” and the EC50 (human NOD2) was 1.84 µM.

For `O=C(NO)c1cc(-n2cnc3ccccc32)cs1` [Compound 2c, 4-(1H-Benzo[d]imidazol-1-yl)-N-hydroxythiophene-2-carboxamide], the “hNOD2-agonistic activity (in words)” value (human NOD2; human NOD2 reporter gene assay) was “inactive”.

Source: US11465998B2, “Therapeutic compounds and methods of use thereof” (Regents of the University of Minnesota, priority 2019, dated 2022)
